In US20090275099A1 (priority 2004, published 2009):
Read-outs that look alike come from different tables or passages of the source.

Experiments:
[1] = molecular target: mitochondrial F1F0-ATPase (Bos taurus, UniProt P13621+P32876); experiment: biochemical; design: species or system bovine; settings: for Ki: synthesis
[2] = molecular target: peripheral benzodiazepine receptor (“PBR”) (Homo sapiens, UniProt P30536); experiment: binding to the peripheral benzodiazepine receptor
[3] = molecular target: T1, bovine serum albumin (BSA) (Bos taurus, UniProt P02769); experiment: binding to bovine serum albumin in tissue culture media; assay type: in vitro ADME; settings: tissue culture media containing 10% (v/v) FBS
T1 construct: from tissue; host or cells: fetal bovine serum in tissue culture media
Experimental: Like most 1,4-benzodiazepines, Bz-423 binds strongly to bovine serum albumin (BSA), which reduces the effective concentration of drug free in solution. For example, in tissue culture media containing 10% (v/v) fetal bovine serum (FBS), ca. 99% of the drug is bound to BSA. Therefore, cell culture cytotoxicity assays are conducted in media with 2% FBS to reduce binding to BSA and increase the free [Bz-423]. Under these conditions, the dose response-curve is quite sharp such that there is a limited concentration range at which Bz-423 is only partly effective. Since some benzodiazepines are known to have anti-proliferative properties, the effect of Bz-423 at concentrations <ED50 were carefully analyzed and observed that in addition to inducing apoptosis, Bz-423 prevented cell growth after 3 d in culture. In these low serum conditions, the cytotoxic and anti-proliferative effects overlapped making it difficult to study each effect independently. […] While higher amounts of drug may also block proliferation, it caused apoptosis well before the effects on proliferation could be observed.

fibroblasts = experiment: intracellular ROS (DCF, flow cytometry); assay type: cell-based, human
Source text: (§1) Foreskin tissue obtained from neonatal circumcisions was used as a source of epidermal keratinocytes and dermal fibroblasts. The use of foreskin tissue in this project was approved by the University of Michigan Institutional Review Board. Epidermal keratinocytes were isolated from foreskin tissue as described previously (see, e.g., Varani J, et al., (1994) J. Clin. Invest. 94:1747-1753; herein incorporated by reference in its entirety). Primary and early passage cells were maintained in Keratinocyte Growth Medium (KGM) (Cambrex Bioscience.). […]
(§2) 2′,7′-dichlorodihydrofluorescin diacetate (DCFH-DA, Molecular Probes, Eugene, Oreg.) was prepared as a 10 mM stock solution in DMSO prior to each use. […] After the indicated treatments, the fluorescence of the oxidized product 2′,7′-dichlorofluorescin (DCF) was monitored by flow cytometry using a FACSCalibur (BD Bioscience, San Diego, Calif.). For each sample, 10,000 events were recorded and the data analyzed to determine median fluorescence intensity.
(§3) Within 1 hour of treatment, Bz-423 increased ROS production in a dose-dependent manner in lymphoid cells. To determine if the anti-proliferative responses to Bz-423 in keratinocytes and fibroblasts similarly involve ROS generation, intracellular ROS levels in Bz-423 treated cells were measured. […]

keratinocytes = experiment: intracellular ROS (DCF, flow cytometry); assay type: cell-based, human
Source text: as §1, §2, §3

F1F0-ATPase = F1F0-ATPase (Bos taurus, UniProt P13621+P32876); experiment: off-rate measurements, recovery of ATP synthesis of SMPs after dilution; assay type: biochemical, bovine
Experimental: Inhibition of Na,K-ATPases with oligomycin is time-dependent and results from a slow rate of dissociation from the enzyme (0.05 s^−1) (see, e.g., Esmann, M. (1991) Biochim. Biophys. Acta 1064, 31-36; herein incorporated by reference in its entirety). Since time-dependent inhibition can have profound effects on the function of the F1F0-ATPase, the off-rate of Bz-423 and oligomycin during ATP synthesis was examined. […] Inhibited SMP suspensions were diluted into buffer and activity was measured over time. Enzymatic activity of the SMPs incubated with Bz-423 had recovered to 90% of control at 10 s, indicating rapid dissociation (see, FIG. 18). In contrast, the activity of the enzyme incubated with oligomycin was only 54% of the uninhibited activity at 10 s, and increased for several minutes after dilution (see, FIG. 18). The time-dependence of the recovery of activity fit to a single exponential yielding an apparent dissociation rate constant for Bz-423>0.3 s^−1. However, dissociation of oligomycin was complex and a portion of the inhibitor dissociated at least 10-fold slower, consistent with a tight-binding, slow-dissociating inhibitor (see, e.g., Morrison, J. F., and Walsh, C. T. (1988) Adv. Enzymol. Relat. Areas Mol. Biol. 61, 201-301; herein incorporated by reference in its entirety). Presumably, the constraints of a high-affinity inhibitor dissociating from the membrane embedded proton channel presented a significant barrier for dissociation resulting in a slow off-rate.
Off-rate measurements. Rate of inhibition of ATP synthesis was measured as described above with the following changes. A 20 μL aliquot of SMPs (1 mg mL^−1) in synthesis buffer (with 10 mM K2HPO4) was added to each well of a 96-well plate containing 2.5 μL of 100× drug (14 μM Bz-423 and 35 nM oligomycin, final) or DMSO vehicle control. The drug was diluted out by adding 200 μL of synthesis buffer to each well. Substratecoupling mixture (25 μL with 1 mM ADP) was added to each well at the indicated time point and the rate of NADP^+ reduction was monitored over time.

T1 sequence (P02769 25-607): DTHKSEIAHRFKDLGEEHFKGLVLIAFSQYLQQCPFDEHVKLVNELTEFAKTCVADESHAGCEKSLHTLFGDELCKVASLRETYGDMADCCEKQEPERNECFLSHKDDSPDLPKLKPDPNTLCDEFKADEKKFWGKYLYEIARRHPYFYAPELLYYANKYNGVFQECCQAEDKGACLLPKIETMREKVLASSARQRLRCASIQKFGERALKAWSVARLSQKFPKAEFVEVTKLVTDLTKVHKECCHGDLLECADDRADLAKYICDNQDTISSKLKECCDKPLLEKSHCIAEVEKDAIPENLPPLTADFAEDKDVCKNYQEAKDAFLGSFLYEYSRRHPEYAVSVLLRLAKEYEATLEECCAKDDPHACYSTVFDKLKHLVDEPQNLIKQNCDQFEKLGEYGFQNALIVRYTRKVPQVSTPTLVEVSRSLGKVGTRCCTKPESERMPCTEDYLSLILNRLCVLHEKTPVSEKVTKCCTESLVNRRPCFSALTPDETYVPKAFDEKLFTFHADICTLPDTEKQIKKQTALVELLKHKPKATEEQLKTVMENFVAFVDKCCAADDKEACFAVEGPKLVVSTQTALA
Sequence of peripheral benzodiazepine receptor (“PBR”) (P30536 whole entry, species assumed): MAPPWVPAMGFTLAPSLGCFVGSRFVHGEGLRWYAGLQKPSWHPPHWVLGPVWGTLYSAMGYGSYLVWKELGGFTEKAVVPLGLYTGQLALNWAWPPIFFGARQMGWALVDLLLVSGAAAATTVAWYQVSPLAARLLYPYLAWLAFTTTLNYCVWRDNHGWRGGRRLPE

For `CN1C(=O)C(Cc2ccc3ccccc3c2)N=C(c2ccc(O)cc2)c2cc(Cl)ccc21` (centres unmarked) [Bz-423], the EC50 ([1]; ATPase activity EC50 (μM), Synthesis, bovine SMPs) was 5.5 µM, the Ki ([1]; Ki (E), three-dimensional fit, Bz-423) was 6.9 ± 0.3 µM and the Ki ([1]; Ki (ES), three-dimensional fit, Bz-423) was 10 ± 1 µM. It also gave a Ki ([1]; competitive inhibition constant (Ki(E)), fit of dependence of Vmax/Km on Bz-423 concentration) of 7.2 ± 0.3 µM, a Ki ([1]; uncompetitive inhibition constant (Ki(ES)), fit of dependence of Vmax on Bz-423 concentration) of 11 ± 2 µM and a Kd [2] of about 1 µM. For the same compound, the “drug bound to BSA” value [3] was “ca. 99%”, the “lowest dose with an ROS response” value (fibroblasts) was 250 nM and the “lowest dose with an ROS response” value (keratinocytes) was 250 nM. For the same compound, the “reduction of F1F0-ATPase activity at the concentration produced after dilution” value (F1F0-ATPase; 1.4 μM Bz-423, 3.5 nM oligomycin) was 10%, the activity at 14 µM (F1F0-ATPase; 14 μM Bz-423 or 35 nM oligomycin, read-out: ATP synthesis activity relative to that in the absence of inhibitor) was 27% and the “enzymatic activity recovered after dilution, % of control” value (F1F0-ATPase; at 10 s after dilution) was 90%. The koff (F1F0-ATPase; read-out: dissociation rate from the enzyme-substrate complex) was about 0.2 s⁻¹ and the koff (F1F0-ATPase; single exponential fit, read-out: apparent dissociation rate constant) was over 0.3 s⁻¹.
